Experiments:
Type in all cases: in vivo
[1] = tested on: redroot pigweed (Amaranthus retroflexus, AMARE); assay: Pre-emerge test, greenhouse herbicide activity screening; conditions: phytotoxicity rating 0-100, 14 days after application
Procedure, shortened: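 Rating: 0–100 visual injury, 14 DAA. Application: acetone, 187 l/ha, 15–1000 g ai/ha, flat-fan track sprayer with nozzle 40–45 cm above soil or canopy. Post-emerge runs used 0.25% v/v surfactant on 2–3 leaf plants.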

[2] = tested on: barnyardgrass (Echinochloa crus-galli, ECHCG); assay: as above; conditions: phytotoxicity rating 0-100, 14 days after application
Procedure, shortened: (§1)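 Fourteen days after spraying, crop and weed injury was graded visually from 0, no effect, to 100, every plant dead. Test substances were dissolved in acetone and applied at 15–1000 g ai/ha with a flat-fan nozzle. Application was either pre-emergence, one day after sowing, or post-emergence at the 2–3 leaf stage.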

[3] = tested on: green foxtail (Setaria viridis, SETVI); assay: as above; conditions: phytotoxicity rating 0-100, 14 days after application
Procedure, shortened: as §1

[4] = tested on: ivyleaf morningglory (Ipomoea hederacea, IPOHE); assay: as above; conditions: phytotoxicity rating 0-100, 14 days after application
Procedure, shortened: as §1

[5] = tested on: johnsongrass (Sorghum halepense, SORHA); assay: as above; conditions: phytotoxicity rating 0-100, 14 days after application
Procedure, shortened: as §1

[6] = tested on: lambsquarters (Chenopodium album, CHEAL); assay: as above; conditions: phytotoxicity rating 0-100, 14 days after application
Procedure, shortened: as §1

[7] = tested on: large crabgrass (Digitaria sanguinalis, DIGSA); assay: as above; conditions: phytotoxicity rating 0-100, 14 days after application
Procedure, shortened: as §1

[8] = tested on: sicklepod (Cassia obtusifolia, CASOB); assay: as above; conditions: phytotoxicity rating 0-100, 14 days after application
Procedure, shortened: as §1

[9] = tested on: velvetleaf (Abutilon theophrasti, ABUTH); assay: as above; conditions: phytotoxicity rating 0-100, 14 days after application
Procedure, shortened: as §1

[10] = tested on: field corn (Zea mays L., var. Dekalb 535, CORN); assay: Pre-emerge test, crop safety; conditions: crop damage rating 0-100, 14 days after application
Procedure, shortened: as §1

[11] = tested on: upland rice (Oryza sp., var. Tebonnet, RICE); assay: Pre-emerge test, crop safety; conditions: crop damage rating 0-100, 14 days after application
Procedure, shortened: as §1

[12] = tested on: barnyardgrass (Echinochloa crus-galli, ECHCG); assay: Post-emerge test, greenhouse herbicide activity screening; conditions: post-emerge, 14 days after application, rating scale 0-100
Procedure, shortened: (§2)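 Compounds in acetone were track-sprayed at 15–1000 g ai/ha: pre-emergence onto soil sown the previous day, then top-watered to incorporate and later bottom-watered; post-emergence onto 2–3 leaf plants with 0.25% v/v surfactant, bottom-watered only. Ratings on a 0–100 phytotoxicity scale were taken at day 14.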

[13] = tested on: green foxtail (Setaria viridis, SETVI); assay: as above; conditions: post-emerge, 14 days after application, rating scale 0-100
Procedure, shortened: as §2

[14] = tested on: ivyleaf morningglory (Ipomoea hederacea, IPOHE); assay: as above; conditions: post-emerge, 14 days after application, rating scale 0-100
Procedure, shortened: as §2

[15] = tested on: johnsongrass (Sorghum halepense, SORHA); assay: as above; conditions: post-emerge, 14 days after application, rating scale 0-100
Procedure, shortened: as §2

[16] = tested on: lambsquarters (Chenopodium album, CHEAL); assay: as above; conditions: post-emerge, 14 days after application, rating scale 0-100
Procedure, shortened: as §2

[17] = tested on: large crabgrass (Digitaria sanguinalis, DIGSA); assay: as above; conditions: post-emerge, 14 days after application, rating scale 0-100
Procedure, shortened: as §2

[18] = tested on: redroot pigweed (Amaranthus retroflexus, AMARE); assay: as above; conditions: post-emerge, 14 days after application
Procedure, shortened: as §2

[19] = tested on: sicklepod (Cassia obtusifolia, CASOB); assay: as above; conditions: post-emerge, 14 days after application, rating scale 0-100
Procedure, shortened: as §2

[20] = tested on: velvetleaf (Abutilon theophrasti, ABUTH); assay: as above; conditions: post-emerge, 14 days after application, rating scale 0-100
Procedure, shortened: as §2

[21] = tested on: field corn (Zea mays L., var. Dekalb 535, CORN); assay: Post-emerge test, crop safety; conditions: post-emerge, 14 days after application, rating scale 0-100
Procedure, shortened: as §1

[22] = tested on: upland rice (Oryza sp., var. Tebonnet, RICE); assay: Post-emerge test, crop safety; conditions: post-emerge, 14 days after application, rating scale 0-100
Procedure, shortened: as §1

[23] = 63 g ai/ha, rating scale 0-100 (0 no damage, 100 complete death)
[24] = 250 g ai/ha, rating scale 0-100

With `COc1c(Cl)cc(F)c(-n2c(=O)cc(C(F)(F)F)n(C)c2=O)c1NC(=O)Nc1ccccc1` [Compound 3-4] the “Pre-emerge Herbicidal Activity AMARE” value ([1]; 63 g ai/ha) was 0, the “Pre-emerge Herbicidal Activity AMARE” value ([1]; 250 g ai/ha) was 100 and the “Pre-emerge Herbicidal Activity ECHCG” value ([2]; 63 g ai/ha) was 0. The “Pre-emerge Herbicidal Activity ECHCG” value ([2]; 250 g ai/ha) was 0, the “Pre-emerge Herbicidal Activity SETVI” value ([3]; 63 g ai/ha) was 20 and the “Pre-emerge Herbicidal Activity SETVI” value ([3]; 250 g ai/ha) was 60. For the same molecule, the “Pre-emerge Herbicidal Activity IPOHE” value ([4]; 63 g ai/ha) was 0, the “Pre-emerge Herbicidal Activity IPOHE” value ([4]; 250 g ai/ha) was 50 and the “Pre-emerge Herbicidal Activity SORHA” value ([5]; 63 g ai/ha) was 0. For the same molecule, the “Pre-emerge Herbicidal Activity SORHA” value ([5]; 250 g ai/ha) was 10, the “Pre-emerge Herbicidal Activity CHEAL” value ([6]; 63 g ai/ha) was 0 and the “Pre-emerge Herbicidal Activity CHEAL” value ([6]; 250 g ai/ha) was 100. The “Pre-emerge Herbicidal Activity DIGSA” value ([7]; 63 g ai/ha) was 0, the “Pre-emerge Herbicidal Activity DIGSA” value ([7]; 250 g ai/ha) was 10 and the “Pre-emerge Herbicidal Activity CASOB” value ([8]; 63 g ai/ha) was 0. For the same molecule, the “Pre-emerge Herbicidal Activity CASOB” value ([8]; 250 g ai/ha) was 60, the “Pre-emerge Herbicidal Activity ABUTH” value ([9]; 63 g ai/ha) was 0 and the “Pre-emerge Herbicidal Activity ABUTH” value ([9]; 250 g ai/ha) was 100. For the same molecule, the “Pre-emerge Herbicidal Activity CORN” value ([10]; 63 g ai/ha) was 0, the “Pre-emerge Herbicidal Activity CORN” value ([10]; 250 g ai/ha) was 0 and the “Pre-emerge Herbicidal Activity RICE” value ([11]; 63 g ai/ha) was 0. The “Pre-emerge Herbicidal Activity RICE” value ([11]; 250 g ai/ha) was 15, the “phytotoxicity rating ECHCG” value ([12]; 63 g ai/ha) was 0 and the “phytotoxicity rating ECHCG” value ([12]; 250 g ai/ha) was 0. For the same molecule, the “phytotoxicity rating SETVI” value ([13]; 63 g ai/ha) was 0, the “phytotoxicity rating SETVI” value ([13]; 250 g ai/ha) was 0 and the “phytotoxicity rating IPOHE” value ([14]; 63 g ai/ha) was 0. For the same molecule, the “phytotoxicity rating IPOHE” value ([14]; 250 g ai/ha) was 0, the “phytotoxicity rating SORHA” value ([15]; 63 g ai/ha) was 0 and the “phytotoxicity rating SORHA” value ([15]; 250 g ai/ha) was 0. For the same molecule, the “phytotoxicity rating CHEAL” value ([16]; 63 g ai/ha) was 0, the “phytotoxicity rating CHEAL” value ([16]; 250 g ai/ha) was 0 and the “phytotoxicity rating DIGSA” value ([17]; 63 g ai/ha) was 0. For the same molecule, the “phytotoxicity rating DIGSA” value ([17]; 250 g ai/ha) was 0, the “phytotoxicity rating AMARE” value [18, 23] was 0 and the “phytotoxicity rating AMARE” value [18, 24] was 0. For the same molecule, the “phytotoxicity rating CASOB” value ([19]; 63 g ai/ha) was 0, the “phytotoxicity rating CASOB” value ([19]; 250 g ai/ha) was 0 and the “phytotoxicity rating ABUTH” value ([20]; 63 g ai/ha) was 40. The “phytotoxicity rating ABUTH” value ([20]; 250 g ai/ha) was 50, the “phytotoxicity rating CORN (crop damage)” value ([21]; 63 g ai/ha) was 0 and the “phytotoxicity rating CORN (crop damage)” value ([21]; 250 g ai/ha) was 0. For the same molecule, the “phytotoxicity rating RICE (crop damage)” value ([22]; 63 g ai/ha) was 0 and the “phytotoxicity rating RICE (crop damage)” value ([22]; 250 g ai/ha) was 10.

For `COc1c(Cl)cc(F)c(-n2c(=O)cc(C(F)(F)F)n(C)c2=O)c1NC(=O)NCc1ccccc1` [Compound 3-6], the “Pre-emerge Herbicidal Activity AMARE” value ([1]; 63 g ai/ha) was 90, the “Pre-emerge Herbicidal Activity AMARE” value ([1]; 250 g ai/ha) was 100 and the “Pre-emerge Herbicidal Activity ECHCG” value ([2]; 63 g ai/ha) was 40. For the same molecule, the “Pre-emerge Herbicidal Activity ECHCG” value ([2]; 250 g ai/ha) was 80, the “Pre-emerge Herbicidal Activity SETVI” value ([3]; 63 g ai/ha) was 100 and the “Pre-emerge Herbicidal Activity SETVI” value ([3]; 250 g ai/ha) was 100. The “Pre-emerge Herbicidal Activity IPOHE” value ([4]; 63 g ai/ha) was 100, the “Pre-emerge Herbicidal Activity IPOHE” value ([4]; 250 g ai/ha) was 95 and the “Pre-emerge Herbicidal Activity SORHA” value ([5]; 63 g ai/ha) was 30. For the same molecule, the “Pre-emerge Herbicidal Activity SORHA” value ([5]; 250 g ai/ha) was 80, the “Pre-emerge Herbicidal Activity CHEAL” value ([6]; 63 g ai/ha) was 100 and the “Pre-emerge Herbicidal Activity CHEAL” value ([6]; 250 g ai/ha) was 100. For the same molecule, the “Pre-emerge Herbicidal Activity DIGSA” value ([7]; 63 g ai/ha) was 30, the “Pre-emerge Herbicidal Activity DIGSA” value ([7]; 250 g ai/ha) was 100 and the “Pre-emerge Herbicidal Activity CASOB” value ([8]; 63 g ai/ha) was 100. The “Pre-emerge Herbicidal Activity CASOB” value ([8]; 250 g ai/ha) was 100, the “Pre-emerge Herbicidal Activity ABUTH” value ([9]; 63 g ai/ha) was 100 and the “Pre-emerge Herbicidal Activity ABUTH” value ([9]; 250 g ai/ha) was 100. The “Pre-emerge Herbicidal Activity CORN” value ([10]; 63 g ai/ha) was 0, the “Pre-emerge Herbicidal Activity CORN” value ([10]; 250 g ai/ha) was 90 and the “Pre-emerge Herbicidal Activity RICE” value ([11]; 63 g ai/ha) was 30. The “Pre-emerge Herbicidal Activity RICE” value ([11]; 250 g ai/ha) was 80, the “phytotoxicity rating ECHCG” value ([12]; 63 g ai/ha) was 0 and the “phytotoxicity rating ECHCG” value ([12]; 250 g ai/ha) was 20. The “phytotoxicity rating SETVI” value ([13]; 63 g ai/ha) was 0, the “phytotoxicity rating SETVI” value ([13]; 250 g ai/ha) was 40 and the “phytotoxicity rating IPOHE” value ([14]; 63 g ai/ha) was 90. The “phytotoxicity rating IPOHE” value ([14]; 250 g ai/ha) was 100, the “phytotoxicity rating SORHA” value ([15]; 63 g ai/ha) was 0 and the “phytotoxicity rating SORHA” value ([15]; 250 g ai/ha) was 20. For the same molecule, the “phytotoxicity rating CHEAL” value ([16]; 63 g ai/ha) was 50, the “phytotoxicity rating CHEAL” value ([16]; 250 g ai/ha) was 90 and the “phytotoxicity rating DIGSA” value ([17]; 63 g ai/ha) was 0. The “phytotoxicity rating DIGSA” value ([17]; 250 g ai/ha) was 10, the “phytotoxicity rating AMARE” value [18, 23] was 100 and the “phytotoxicity rating AMARE” value [18, 24] was 100. The “phytotoxicity rating CASOB” value ([19]; 63 g ai/ha) was 40, the “phytotoxicity rating CASOB” value ([19]; 250 g ai/ha) was 90 and the “phytotoxicity rating ABUTH” value ([20]; 63 g ai/ha) was 100. For the same molecule, the “phytotoxicity rating ABUTH” value ([20]; 250 g ai/ha) was 100, the “phytotoxicity rating CORN (crop damage)” value ([21]; 63 g ai/ha) was 20 and the “phytotoxicity rating CORN (crop damage)” value ([21]; 250 g ai/ha) was 70. The “phytotoxicity rating RICE (crop damage)” value ([22]; 63 g ai/ha) was 30 and the “phytotoxicity rating RICE (crop damage)” value ([22]; 250 g ai/ha) was 70.

From patent US6355799B1, “Substituted benzene compounds, process for their preparation, and herbicidal and defoliant compositions containing them” (ISK Americas Incorporated, priority 1997, dated 2002)
